Structures can show the parent of a compound that is named as a salt.
Legend:
Nrf2 [1] = assay: UVB-induced Nrf2 degradation in HPKs (Western blot); type: cell-based, human; settings: harvested after 1 h, FIG. 7D
Source text: Next, the inventors investigated the activity of Nrf2 upon activation of the NLRP3 inflammasome, since inflammasome activation is ROS-dependent. […] This is surprising, since UVB irradiation is a strong inducer of ROS production and it can be anticipated that the cells would benefit from Nrf2 activation. UVB-induced secretion by HPKs requires expression of NLRP1 and NLRP3 [21]. Both nigericin and MSU crystals are considered as “true” NLRP3 activators, but HPKs cannot phagocytose MSU crystals. Therefore, the inventors treated HPKs with nigericin only and THP-1 cells with either of these NLRP3 activators. […] Therefore, NLRP3 inflammasome activation most likely induces Nrf2 protein degradation. […] However, inflammasome activation-induced Nrf2 degradation was blocked upon ablation of ASC or NLRP3 expression (FIG. 4G) and upon treatment of cells with the ROS blocker PDTC or the Ca2+ chelator BAPTA-AM (Supplementary FIG. 2D). […] However, inflammasome function was not impaired, as reflected by normal processing of pro-IL-18 (FIG. 4H). Although Keap1 expression is partially dispensable for Nrf2 degradation by inflammasome activation, the transcription factor is directed to the proteasome under these conditions, since Nrf2 degradation was inhibited by the proteasome inhibitor MG132 (FIG. 4I and FIG. 7D).
(§1) FIG. 7: (A-C) HPKs were transfected with siRNAs for 3 d as indicated. Scrambled (scr) siRNA and siRNA targeting the unrelated vascular endothelial growth factor (VEGF) served as controls. Western blots of (A) total lysates or (B) nuclear and cytoplasmic lysates and (C) qRT-PCR for expression of target gene expression. (D) HPKs were treated with MG132 (1 μM), PDTC (500 μM) or BAPTA-AM (12.5 μM) for 10 min and harvested (before UV) or irradiated with UVB and harvested after 1 h. Western blots showing expression of Nrf2. (E) Differentiated and primed THP-1 cells were pretreated with cycloheximide (CHX, 30 μg/ml) for 1 h before priming cells with upLPS overnight. Western blots show expression of the indicated proteins. […] Statistics: (C) Mann-Whitney test, related to scr control. *P≤0.05

Nrf2 [2] = assay: Nrf2 stabilisation and nuclear accumulation in human primary keratinocytes (Western blot); type: cell-based; settings: HPKs, FIG. 6E,F; for expression of the other Nrf2 complex proteins Keap1, Cul3, and Rbx1: 1 h; for stabilisation and nuclear accumulation of Nrf2 protein: harvested after 1 h
Protocol: (§2) Human primary keratinocytes (HPKs) constitutively express pro-IL-1β and inflammasome proteins.
(§3) FIG. 6: Bone marrow (BM) cells were isolated from Nrf2-deficient mice and wt litterfnates and differentiated into dendritic cells (DCs). (A, B) After priming with upLPS overnight, BMDCs were treated with the NLRP3 inflammasome activators nigericin (20 μM), zymosan (20 μg/ml), MSU (150 μg/ml), ATP (5 mM) or transfected with poly(dA:dT) (1 μg/ml) for activation of the AIM2 inflammasome. After 6 h, supernatants were analysed for secretion of IL-1β by (A) ELISA or (B) Western blot. Mock-treated but primed BMDCs were analysed for expression of inflammasome proteins and pro-IL-1β at the (C) mRNA level by qRT-PCR or at the (D) protein level by Western blot. (B, D) Duplicates from two individual mice per genotype are shown (biological replicates). (E-G) HPKs were treated with the Nrf2 activators SFN (10 μM), tBHQ (10 μM), DMF (50 μM) and 15d-PGJ2 (10 μM). After 1 h, the cells were harvested and analysed for expression of the indicated proteins using total cell lysates (E) or cytoplasmic and nuclear lysates (F). Western blots for the nuclear protein lamin NC and the cytoplasmic protein α-tubulin served as controls. Specific bands are marked with an asterisk. (G) Total RNA was isolated after 8 h and qRT-PCR was performed for quantification of expression of the Nrf2 target genes glutamate-cysteine ligase, catalytic subunit (GCLC), glutamate-cysteine ligase, modifier subunit (GCLM), and NAD(P)H dehydrogenase, quinone 1 (N001). (A-G) Representative experiments performed at least three times are shown. […] Mann-Whitney test was performed. […] Mann-Whitney test was performed. *P≤0.05

[3] = tested on: Nrf2 target genes (GCLC, GCLM, NAD(P)H dehydrogenase, quinone 1); assay: Nrf2 target gene expression in HPKs (qRT-PCR); type: cell-based, human; settings: RNA after 8 h, FIG. 6G
Protocol: as §2
qRT-PCR was performed with the LightCycler 480 SYBR Green Master or the FastStart Universal SYBR Green Master (both Roche, Rotkreuz, Switzerland) using total cellular RNA. Specific primer pairs (Supplementary Table 2) were designed to generate an approximately 150 bp fragment flanking an intron-exon border of the corresponding gene. The LightCycler 480 96-well version (ROCHE, Rotkreuz, Switzerland) or the ViiA 7 Real-Time FOR System (Life Technologies, Carlsbad, US-CA) was used for reaction and detection according the instructions of the manufacturer.
as §3

NLRP3 inflammasome [4] = assay: UVB irradiation-induced inflammasome activation in HPKs (IL-1β ELISA, Western blot); type: cell-based, human; settings: FIG. 2A, 8A-C; for inflammasome activation (processed caspase-1, mature IL-1β and -18 in the supernatant): different doses, UVB 30 min later, harvested after 5 h
Source text: (§4) To determine the effects of Nrf2 activating compounds on inflammasome activation, the inventors treated keratinocytes with different doses of SFN, tBHQ, DMF or 15d-PGJ2 and irradiated the cells with UVB.
(§5) SFN, DMF, 15d-PGJ2, tBHQ, zymosan, ATP, poly(dA:dT), cycloheximide, puromycin, and doxycycline were purchased from Sigma (Munich, Germany), nigericin from Enzo Life Sciences (New York, US-NY), MG132 from Calbiochem (Darmstadt, Germany), and blasticidin from Invivogen (Toulouse, France). Release of IL-1p was determined by ELISA according the instructions of the manufacturer (R&D Systems, Minneapolis, US-MN). MSU crystals were prepared by crystallisation of a supersaturated solution of uric acid under mildly basic conditions. Briefly, uric acid was added to a solution of NaOH, the solution was boiled until the uric acid was dissolved and passed through a filter. NaCl was added and crystallisation was performed at 4° C. Crystals were filtered, then dried using a speedvac, weighted and autoclaved.
(§6) (A) HPKs were treated with the indicated concentrations of the Nrf2 activating compound tBHQ irradiated with UVB 30 min later and harvested after 5 h. ELISA measurements were performed for quantification of IL-1β secretion and Western blots for analysis of expression and activation of the indicated proteins. Specific bands are marked with an asterisk. (B) THP-1 cells were differentiated with PMA (27 nM) for 3 d, primed with upLPS (100 ng/ml) overnight, and 1 h before inflammasome activation (5 μM nigericin, 150 μg/ml MSU) treated with SFN (10 μM), 15-PGJ2 (10 μM) or DMF (50 μM) (15-PG: 15-PGJ2). Cells and supernatants were harvested after 5 h and analysed for inflammasome activation by ELISA measurement of IL-1p and Western blots as indicated. (C) Freshly isolated PBMCs from human blood were primed overnight with upLPS (100 ng/ml) and treated with SFN (10 μM), tBHQ (10 μM), DMF (50 μM) or 15-PGJ2 (10 μM) 1 h before inflammasome activation by nigericin (5 μM). ELISA measurement for secretion of IL-1β as readout for inflammasome activation was performed after 5 h. (D) HPKs or (E) differentiated and primed THP-1 cells were pretreated with cycloheximide (CHX, 30 μg/ml) to block protein synthesis for 1 h before SFN (10 μM) was added to the cells and after an additional hour the inflammasome was activated by (D) irradiation with UVB or (E) treatment with nigericin (5 μM). Cells and supernatants were harvested after (D) 6 h or (E) 3.5 h and analysed for inflammasome activation by Western blot as indicated. (A-E) Representative experiments performed at least three times are shown. Statistics: (A-C) Error bars represent the mean±SD of a representative experiment performed in triplicates. One-way ANOVA was performed. **P≤0.01; ***P≤0.001.
FIG. 8: (A-C) HPKs were treated with the Nrf2 activating compounds (A) SFN, (B) DMF, and (C) 15d-PGJ2, irradiated with UVB 30 min later and harvested after 5 h. Analogous experiment as described in FIG. 2A for tBHQ. (D) THP-1 cells were differentiated with TPA for 3 d and primed with LPS overnight. Then, cells were treated with the solvent DMSO, SFN (10 μM) or 15-PGJ2 (10 μM). After 30 min the inflammasome was activated by nigericin treatment and cells and supernatants were harvested after 2.5 h. Western blots showing prolL-1β and mature IL-1p in the lysate and supernatant. 20% lysate and supernatant of a 12 well was used, respectively, in order to allow a comparison. IL-1β was quantified in the supernatant by ELISA and cytotoxicity by LDH release.

NLRP3 inflammasome [5] = target: T1, NLRP3 inflammasome (Homo sapiens, UniProt Q96P20); assay: Inflammasome activation by nigericin/MSU in differentiated, primed THP-1 cells (IL-1β ELISA, Western blot); type: cell-based; settings: THP-1, 50 μM 1 h before 5 μM nigericin or 150 μg/ml MSU, 5 h, FIG. 2B
T1 construct: endogenous in cells
Source text: as §4, §5, §6
(A-C) HPKs were irradiated with (A) UVB or treated with (B) nigericin (5 μM) and cells and supernatants were harvested at different time points as indicated. Western blots for expression and activation of the indicated proteins. Specific bands are marked with an asterisk. (C) Expression of Nrf2 and Nrf2 target genes was determined by qRT-PCR. (D, E) THP-1 cells were differentiated with PMA (27 nM) for 3 d, primed with upLPS (100 ng/ml) overnight and treated with nigericin (5 μM) or MSU (150 μg/ml). Cells and supernatants were harvested at different time points as indicated and analysed for (D) expression and activation of the proteins as indicated by Western blot and (E) expression of Nrf2 and Nrf2 target genes by qRT-PCR. (F) HPKs were transfected with specific siRNAs as indicated (scr: scrambled, c1: caspase-1, K1; Keap1), 2 d later irradiated with UVB or treated with nigericin (5 μM). Cells were harvested after 1 h or 5 h, and lysates were analysed for the expression of the indicated proteins by Western blot.

NLRP3 inflammasome [6] = target: T1, NLRP3 inflammasome; assay: Nigericin-induced IL-1β secretion in human PBMCs (ELISA); type: cell-based; settings: 5 h, FIG. 2C
Source text: as §4, §5, §6

[7] = tested on: Monosodium urate (MSU) crystal-induced peritonitis; assay: MSU crystal-induced peritonitis mouse model (neutrophils in peritoneal lavage); type: in vivo; settings: mice, oral gavage 20 mg/kg for six days, 6 h post 2 mg MSU crystals, vs control mice, n=7, FIG. 3E
Protocol: (§7) Monosodium urate (MSU) crystal-induced peritonitis is a mouse model of inflammation and gout, which is dependent on IL-1, IL-1R1, MyD88 and the NLRP3 inflammasome. […] The inventors chose a different way of administration and supplied mice with SFN or DMF by oral gavage to determine a potential anti-inflammatory activity of the Nrf2 activators in vivo (FIG. 3). […] The inventors analysed the cellular infiltrate in the peritoneum 6 h post injection of MSU crystals.
Mice were challenged with 2 mg of MSU crystals for 6 hours as previously described (Chen et a Olin Invest 2006. 116: 2262-2271).
Mice treated by gavage with (A, B, C) SFN (25 mg/kg) in PBS or (D, E, F) DMF (20 mg/kg) in H2O containing 0.08% methocel and 10% DMSO, vehicle-treated mice served as control. Regime for (A) SFN or (D) DMF treatment. Peritonitis was induced by peritoneal injection of 2 mg MSU crystals, (B, E) After 6 h the number of neutrophils of the peritoneal lavage was determined by flow cytornetry. […] Statistics: Student's t-test. (B, C) n≥3, (E, F) n=7. *P≤0.05; **P≤0.01

[8] = tested on: Nrf2 target genes Gstp1, Nqo1 and Srxn1; assay: Nrf2 target gene expression in liver of treated mice (qRT-PCR); type: in vivo, mouse; settings: oral gavage 20 mg/kg, FIG. 3F
Protocol: as §7
qRT-PCR was performed with the LightCycler 480 SYBR Green Master or the FastStart Universal SYBR Green Master (both Roche, Rotkreuz, Switzerland) using total cellular RNA. Specific primer pairs (Supplementary Table 2) were designed to generate an approximately 150 bp fragment flanking an intron-exon border of the corresponding gene. […]
Mice treated by gavage with (A, B, C) SFN (25 mg/kg) in PBS or (D, E, F) DMF (20 mg/kg) in H2O containing 0.08% methocel and 10% DMSO, vehicle-treated mice served as control. […] Peritonitis was induced by peritoneal injection of 2 mg MSU crystals, (B, E) After 6 h the number of neutrophils of the peritoneal lavage was determined by flow cytornetry. (C, F) At the same time, the liver was isolated and analysed for the expression of the Nrf2 target genes Gstp1, Nqo1 and Srxn1 by qRT-PCR. […]

THP-1 cells = assay: Block of protein synthesis in THP-1 cells (Western blot); type: cell-based, human; settings: THP-1, 30 μg/ml for 1 h before priming with upLPS overnight, FIG. 7E
Protocol: To determine the effects of Nrf2 activating compounds on inflammasome activation, the inventors treated keratinocytes with different doses of SFN, tBHQ, DMF or 15d-PGJ2 and irradiated the cells with UVB. […] As the Nrf2 activators were added to the cells only 15 to 30 min prior to inflammasome activation, it is unlikely that Nrf2 target genes are involved in inflammasome inhibition.
as §1

T1 sequence (Q96P20 whole entry): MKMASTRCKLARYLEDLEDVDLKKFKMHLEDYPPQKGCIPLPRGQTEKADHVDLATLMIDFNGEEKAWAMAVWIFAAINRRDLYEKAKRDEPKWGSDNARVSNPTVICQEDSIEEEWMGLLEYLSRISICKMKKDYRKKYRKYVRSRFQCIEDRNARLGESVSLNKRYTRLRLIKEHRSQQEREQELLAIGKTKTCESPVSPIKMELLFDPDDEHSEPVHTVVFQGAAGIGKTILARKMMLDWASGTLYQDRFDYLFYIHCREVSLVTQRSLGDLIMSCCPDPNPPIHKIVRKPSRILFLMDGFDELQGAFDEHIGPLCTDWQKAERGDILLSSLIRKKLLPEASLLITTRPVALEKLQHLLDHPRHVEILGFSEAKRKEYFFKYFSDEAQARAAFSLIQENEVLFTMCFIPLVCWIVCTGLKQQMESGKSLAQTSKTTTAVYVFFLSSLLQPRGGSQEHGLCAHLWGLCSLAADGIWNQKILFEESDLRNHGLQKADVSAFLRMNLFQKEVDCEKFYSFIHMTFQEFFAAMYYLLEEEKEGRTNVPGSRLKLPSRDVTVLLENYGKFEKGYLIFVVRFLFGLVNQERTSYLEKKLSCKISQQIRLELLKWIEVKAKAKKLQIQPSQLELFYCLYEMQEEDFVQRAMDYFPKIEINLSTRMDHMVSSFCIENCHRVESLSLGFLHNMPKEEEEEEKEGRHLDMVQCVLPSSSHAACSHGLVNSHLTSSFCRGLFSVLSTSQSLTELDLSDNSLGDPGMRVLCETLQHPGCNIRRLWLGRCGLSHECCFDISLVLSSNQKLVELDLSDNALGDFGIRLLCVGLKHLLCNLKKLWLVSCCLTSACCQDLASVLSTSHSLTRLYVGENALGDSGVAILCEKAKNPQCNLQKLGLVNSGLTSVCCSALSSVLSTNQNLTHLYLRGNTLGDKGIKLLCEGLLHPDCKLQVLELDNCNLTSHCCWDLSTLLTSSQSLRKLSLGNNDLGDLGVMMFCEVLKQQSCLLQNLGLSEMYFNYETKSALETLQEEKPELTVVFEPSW

## CC(=O)OCOC(=O)CN(CC(=O)OCOC(C)=O)c1ccccc1OCCOc1ccccc1N(CC(=O)OCOC(C)=O)CC(=O)OCOC(C)=O [BAPTA-AM]
Nrf2 [1]; 12.5 μM for 10 min
  inflammasome activation-induced Nrf2 degradation: blocked

## COC(=O)/C=C/C(=O)OC [DMF, dimethyl fumarate]
Nrf2 [2]; 50 μM
  expression of the other Nrf2 complex proteins Keap1, Cul3, and Rbx1: not affected
  stabilisation and nuclear accumulation of Nrf2 protein: fast and robust stabilisation and nuclear accumulation of Nrf2 protein
[3]; 50 μM
  expression of classical Nrf2 target genes: induction of classical Nrf2 target genes
NLRP3 inflammasome [4]; UVB, same concentrations
  relative efficiency/potency of inflammasome inhibition between compounds: less potent in inflammasome inhibition than SFN
NLRP3 inflammasome [4]
  inflammasome activation (processed caspase-1, mature IL-1β and -18 in the supernatant): inhibited inflammasome activation in a dose-dependent manner
NLRP3 inflammasome [5]
  IL-1β secretion: inhibited IL-1β secretion
NLRP3 inflammasome [6]; 50 μM 1 h before nigericin (5 μM)
  IL-1β secretion: inhibited IL-1β secretion
[7]
  number of neutrophils in the peritoneum: significantly reduced
[8]
  expression of Nrf2 target genes in the liver: increased mRNA expression

## N.S=C(S)N1CCCC1 [PDTC]
Nrf2 [1]; 500 μM for 10 min
  inflammasome activation-induced Nrf2 degradation: blocked

## C[C@@H]1C[C@@H]([C@H](O)CC2CC(=O)NC(=O)C2)C(=O)[C@@H](C)C1 [cycloheximide]
THP-1 cells
  protein synthesis: blocks protein synthesis

## CC(C)(C)c1cc(O)ccc1O [tBHQ, tert-butylhydroquinone]
Nrf2 [2]; 10 μM
  expression of the other Nrf2 complex proteins Keap1, Cul3, and Rbx1: not affected
  stabilisation and nuclear accumulation of Nrf2 protein: fast and robust stabilisation and nuclear accumulation of Nrf2 protein
[3]; 10 μM
  expression of classical Nrf2 target genes: induction of classical Nrf2 target genes
NLRP3 inflammasome [4]
  inflammasome activation (processed caspase-1, mature IL-1β and -18 in the supernatant): inhibited inflammasome activation in a dose-dependent manner
NLRP3 inflammasome [6]; 10 μM 1 h before nigericin (5 μM)
  IL-1β secretion: inhibited IL-1β secretion

From patent US20190029987A1, “DIMETHYL FUMARATE (DMF) FOR PREVENTION OR TREATMENT OF GOUT, ACNE, DIABETES, VITILIGO AND/OR PYODERMA GANGRENOSUM” (UNIVERSITAT ZURICH, priority 2016, published 2019)
